Here are results for 14 compounds from patent US12630547B2, “RAS protein degraders, pharmaceutical compositions thereof, and their therapeutic applications” (BioTheryX, Inc., priority 2019, dated 2026).

What all share (format): cell-based
For one experiment, the system named is H358 cells. In words: Cell viability assay (CELLTITER-GLO), H358 cells. Conditions: Table 4; 3 days. Put shortly:
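H358 cells (RPMI 1640, 10% FBS), 4,000 per well, exposed to compound for 3 days at 37 °C, 5% CO2; viability by CellTiter-Glo luminescence. Single-dose viability as % DMSO at 10 or 1 μM, binned A (<10%) to D (≥50%); IC50 binned A (≤1 μM) to D (>10 μM).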
(Cellular ATP, detected with luciferase, serves as a proxy for viable cell number.)

The test system of the next experiment is H23 cells. In words: Cell viability assay (CELLTITER-GLO), H23 cells. Conditions: Table 4; 3 days. Put shortly:
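H23 cells in RPMI 1640 with 10% FBS, 4,000 cells/well, exposed to compound or DMSO for 3 days at 37° C, 5% CO2. Viability read by CellTiter-Glo luminescence after 10 min. IC50 reported in potency bins.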

Another experiment relates to MOLM-13 cells. In words: Cell viability assay (CELLTITER-GLO), MOLM-13 cells. The following applies: Homo sapiens, MOLM-13, 72 h; Table 2; compound at 10 μM, 3 days; read-out: Effect on MOLM-13 cell viability (% DMSO). The method, boiled down: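 MV-4-11 and MOLM-13 cells in RPMI 1640/10% FBS were seeded at 4,000 cells/well and exposed to compound (10 μM or 1 μM) or DMSO for 3 days at 37 °C, 5% CO2. CellTiter-Glo luminescence gave viability as % DMSO, binned into ranges A (<10%) through D (≥50%).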

Molecules are shown by their SMILES. Bounds are passed on as bounds.

In general, viability refers to a per cent measure of how many cells are alive, often set against a control. For `C=CC(=O)N1CCN(c2ncnc3c(F)c(-c4c(F)cccc4OCCCNCc4ccc(COc5cccc6c5CN([C@H]5CCC(=O)NC5=O)C6=O)cc4)c(Cl)cc23)CC1` [Compound 62, (3S)-3-(4-((4-(((3-(2-(4-(4-Acryloylpiperazin-1-yl)-6-chloro-8-fluoroquinazolin-7-yl)-3-fluorophenoxy)propyl)amino)methyl)benzyl)oxy)-1-oxoisoindolin-2-yl)piperidine-2,6-dione], the “Inhibition of H358 cells, IC50 (class)” value with H358 cells is recorded as “B′”. The “Inhibition of H23 cells, IC50 (class)” value with H23 cells is “B′”. The viability at 10 µM in the experiment on MOLM-13 cells is under 10%.
In the case of `CCC(=O)N1CCN(c2ncnc3c(F)c(-c4c(F)cccc4OCCCNCc4ccc(COc5cccc6c5CN([C@H]5CCC(=O)NC5=O)C6=O)cc4)c(Cl)cc23)CC1` [Compound 63, (3S)-3-(4-((4-(((3-(2-(6-Chloro-8-fluoro-4-(4-propionylpiperazin-1-yl)quinazolin-7-yl)-3-fluorophenoxy)propyl)amino)methyl)benzyl)oxy)-1-oxoisoindolin-2-yl)piperidine-2,6-dione], in the experiment with H358 cells, the “Inhibition of H358 cells, IC50 (class)” value is recorded as “C′”. Also, the “Inhibition of H23 cells, IC50 (class)” value in the experiment on H23 cells is reported as “C′”. Also, the viability at 10 µM in the experiment on MOLM-13 cells lay within 10 to 25%.
As to `C=CC(=O)N1C[C@@H]2C(=O)N(C)c3cnc4c(F)c(-c5c(F)cccc5OCCCCCCCN5CCC(c6cc(F)cc7c6CN(C6CCC(=O)NC6=O)C7=O)CC5)c(Cl)cc4c3N2C[C@H]1C` (stereo partly drawn) [Compound 64, 3-(4-(1-(7-(2-((2R,4aR)-3-Acryloyl-11-chloro-9-fluoro-2,6-dimethyl-5-oxo-2,3,4,4a,5,6-hexahydro-1H-pyrazino[1′,2′:4,5]pyrazino[2,3-c]quinolin-10-yl)-3-fluorophenoxy)heptyl)piperidin-4-yl)-6-fluoro-1-oxoisoindolin-2-yl)piperidine-2,6-dione], the “Inhibition of H358 cells, IC50 (class)” value in the experiment with H358 cells is recorded as “B′”. Besides, the “Inhibition of H23 cells, IC50 (class)” value in the experiment with H23 cells was “A′”. In addition, in the experiment on MOLM-13 cells, the viability at 10 µM was under 10%.
`CCC(=O)N1C[C@@H]2C(=O)N(C)c3cnc4c(F)c(-c5c(F)cccc5OCCCCCCCN5CCC(c6cc(F)cc7c6CN(C6CCC(=O)NC6=O)C7=O)CC5)c(Cl)cc4c3N2C[C@H]1C` (stereo partly drawn) [Compound 65, 3-(4-(1-(7-(2-((2R,4aR)-11-Chloro-9-fluoro-2,6-dimethyl-5-oxo-3-propionyl-2,3,4,4a,5,6-hexahydro-1H-pyrazino[11′,2′:4,5]pyrazino[2,3-c]quinolin-10-yl)-3-fluorophenoxy)heptyl)piperidin-4-yl)-6-fluoro-1-oxoisoindolin-2-yl)piperidine-2,6-dione]: the “Inhibition of H358 cells, IC50 (class)” value in the experiment on H358 cells is recorded as “B′”. Besides, in the experiment with H23 cells, the “Inhibition of H23 cells, IC50 (class)” value is on record as “B′”. Also, the viability at 10 µM with MOLM-13 cells is under 10%.
As to `C=CC(=O)N1C[C@@H]2C(=O)N(CCCCCCCN3CCC(c4cc(F)cc5c4CN(C4CCC(=O)NC4=O)C5=O)CC3)c3cnc4c(F)c(-c5c(O)cccc5F)c(Cl)cc4c3N2C[C@H]1C` (stereo partly drawn) [Compound 66, 3-(4-(1-(7-((2R,4aR)-3-Acryloyl-11-chloro-9-fluoro-10-(2-fluoro-6-hydroxyphenyl)-2-methyl-5-oxo-1,2,3,4,4a,5-hexahydro-6H-pyrazino[1′,2′:4,5]pyrazino[2,3-c]quinolin-6-yl)heptyl)piperidin-4-yl)-6-fluoro-1-oxoisoindolin-2-yl)piperidine-2,6-dione], in the experiment on H358 cells, the “Inhibition of H358 cells, IC50 (class)” value is “A′”. For the same compound, the “Inhibition of H23 cells, IC50 (class)” value in the experiment with H23 cells is given as “B′”. Moreover, the viability at 10 µM in the experiment with MOLM-13 cells was under 10%.
Take `CCC(=O)N1C[C@@H]2C(=O)N(CCCCCCCN3CCC(c4cc(F)cc5c4CN(C4CCC(=O)NC4=O)C5=O)CC3)c3cnc4c(F)c(-c5c(O)cccc5F)c(Cl)cc4c3N2C[C@H]1C` (stereo partly drawn) [Compound 67, 3-(4-(1-(7-((2R,4aR)-11-Chloro-9-fluoro-10-(2-fluoro-6-hydroxyphenyl)-2-methyl-5-oxo-3-propionyl-1,2,3,4,4a,5-hexahydro-6H-pyrazino[11′,2′:4,5]pyrazino[2,3-c]quinolin-6-yl)heptyl)piperidin-4-yl)-6-fluoro-1-oxoisoindolin-2-yl)piperidine-2,6-dione]: the “Inhibition of H358 cells, IC50 (class)” value in the experiment on H358 cells is on record as “B′”. Further, in the experiment on H23 cells, the “Inhibition of H23 cells, IC50 (class)” value is “B′”. In addition, in the experiment on MOLM-13 cells, the viability at 10 µM is under 10%.
`C=CC(=O)N1CCN(c2ncnc3c(F)c(-c4c(F)cccc4OCCCCCCCN4CCC(c5scc6c5CN(C5CCC(=O)NC5=O)C6=O)CC4)c(Cl)cc23)CC1` (stereo not drawn) [Compound 70, 3-(1-(1-(7-(2-(4-(4-Acryloylpiperazin-1-yl)-6-chloro-8-fluoroquinazolin-7-yl)-3-fluorophenoxy)heptyl)piperidin-4-yl)-4-oxo-4H-thieno[3,4-c]pyrrol-5(6H)-yl)piperidine-2,6-dione]: the “Inhibition of H358 cells, IC50 (class)” value in the experiment with H358 cells was “A′”. Moreover, the “Inhibition of H23 cells, IC50 (class)” value in the experiment with H23 cells was “B′”. The viability at 10 µM in the experiment with MOLM-13 cells was under 10%.
For `CCC(=O)N1CCN(c2ncnc3c(F)c(-c4c(F)cccc4OCCCCCCCN4CCC(c5scc6c5CN(C5CCC(=O)NC5=O)C6=O)CC4)c(Cl)cc23)CC1` (stereo not drawn) [Compound 71, 3-(1-(1-(7-(2-(6-chloro-8-fluoro-4-(4-propionylpiperazin-1-yl)quinazolin-7-yl)-3-fluorophenoxy)heptyl)piperidin-4-yl)-4-oxo-4H-thieno[3,4-c]pyrrol-5(6H)-yl)piperidine-2,6-dione], in the experiment with H358 cells, the “Inhibition of H358 cells, IC50 (class)” value is given as “B′”. Moreover, in the experiment with H23 cells, the “Inhibition of H23 cells, IC50 (class)” value was “B′”. Besides, the viability at 10 µM with MOLM-13 cells is under 10%.
`C=CC(=O)N1CCN(c2nc(=O)n(-c3ccccc3C(C)C)c3nc(-c4c(F)cccc4OCCCCCCCN4CCC(c5cc(F)cc6c5CN(C5CCC(=O)NC5=O)C6=O)CC4)c(F)cc23)[C@@H](C)C1` (stereo partly drawn) [Compound 72, 3-(4-(1-(7-(2-(4-((S)-4-Acryloyl-2-methylpiperazin-1-yl)-6-fluoro-1-(2-isopropylphenyl)-2-oxo-1,2-dihydropyrido[2,3-d]pyrimidin-7-yl)-3-fluorophenoxy)heptyl)piperidin-4-yl)-6-fluoro-1-oxoisoindolin-2-yl)piperidine-2,6-dione]: in the experiment on H358 cells, the “Inhibition of H358 cells, IC50 (class)” value is listed as “A′”. For the same compound, the “Inhibition of H23 cells, IC50 (class)” value in the experiment on H23 cells was “B′”. Further, the viability at 10 µM with MOLM-13 cells was under 10%.
As to `CCC(=O)N1CCN(c2nc(=O)n(-c3ccccc3C(C)C)c3nc(-c4c(F)cccc4OCCCCCCCN4CCC(c5cc(F)cc6c5CN(C5CCC(=O)NC5=O)C6=O)CC4)c(F)cc23)[C@@H](C)C1` (stereo partly drawn) [Compound 73, 3-(6-Fluoro-4-(1-(7-(3-fluoro-2-(6-fluoro-1-(2-isopropylphenyl)-4-((S)-2-methyl-4-propionylpiperazin-1-yl)-2-oxo-1,2-dihydropyrido[2,3-d]pyrimidin-7-yl)phenoxy)heptyl)piperidin-4-yl)-1-oxoisoindolin-2-yl)piperidine-2,6-dione], in the experiment with H358 cells, the “Inhibition of H358 cells, IC50 (class)” value is on record as “B′”. Moreover, the “Inhibition of H23 cells, IC50 (class)” value in the experiment on H23 cells is on record as “B′”. The viability at 10 µM in the experiment on MOLM-13 cells fell in the range of 10 to 25%.
For the compound `C=CC(=O)N1CCN(c2nc(OCCCCCCCN3CCC(c4cc(F)cc5c4CN(C4CCC(=O)NC4=O)C5=O)CC3)nc3c2CCN(c2cc(O)cc4ccccc24)C3)CC1` (stereo not drawn) [Compound 75, 3-(4-(1-(7-((4-(4-Acryloylpiperazin-1-yl)-7-(3-hydroxynaphthalen-1-yl)-5,6,7,8-tetrahydropyrido[3,4-d]pyrimidin-2-yl)oxy)heptyl)piperidin-4-yl)-6-fluoro-1-oxoisoindolin-2-yl)piperidine-2,6-dione], the “Inhibition of H358 cells, IC50 (class)” value in the experiment with H358 cells is listed as “C′”. In addition, the “Inhibition of H23 cells, IC50 (class)” value in the experiment with H23 cells is reported as “B′”. In the experiment with MOLM-13 cells, the viability at 10 µM lay in the range of 25 to 50%.
Taken in the same sequence, the figures for `C=CC(=O)N1CCN(c2ncnc3c(F)c(-c4c(F)cccc4OCCCCCCCCCCC(=O)N[C@H](C(=O)N4C[C@H](O)C[C@H]4C(=O)NCc4ccc(-c5scnc5C)cc4)C(C)(C)C)c(Cl)cc23)CC1` [Compound 76, (2S,4R)-1-((2S)-2-(11-(2-(4-(4-Acryloylpiperazin-1-yl)-6-chloro-8-fluoroquinazolin-7-yl)-3-fluorophenoxy)undecanamido)-3,3-dimethylbutanoyl)-4-hydroxy-N-(4-(4-methylthiazol-5-yl)benzyl)pyrrolidine-2-carboxamide] were “B′”, “B′” and under 10%.
Regarding `CCC(=O)N1CCN(c2ncnc3c(F)c(-c4c(F)cccc4OCCCCCCCCCCC(=O)N[C@H](C(=O)N4C[C@H](O)C[C@H]4C(=O)NCc4ccc(-c5scnc5C)cc4)C(C)(C)C)c(Cl)cc23)CC1` [Compound 77, (2S,4R)-1-((2S)-2-(11-(2-(6-Chloro-8-fluoro-4-(4-propionylpiperazin-1-yl)quinazolin-7-yl)-3-fluorophenoxy)undecanamido)-3,3-dimethylbutanoyl)-4-hydroxy-N-(4-(4-methylthiazol-5-yl)benzyl)pyrrolidine-2-carboxamide], the “Inhibition of H358 cells, IC50 (class)” value in the experiment with H358 cells was “C′”. Besides, the “Inhibition of H23 cells, IC50 (class)” value in the experiment with H23 cells was “D′”. Moreover, the viability at 10 µM in the experiment with MOLM-13 cells was at least 50%.
With `CCC(=O)N1CCN(c2ncnc3c(F)c(-c4c(F)cccc4OCCCCCCC(=O)N[C@H](C(=O)N4C[C@H](O)C[C@H]4C(=O)NCc4ccc(-c5scnc5C)cc4)C(C)(C)C)c(Cl)cc23)CC1` [Compound 78, (2S,4R)-1-((2S)-2-(7-(2-(6-Chloro-8-fluoro-4-(4-propionylpiperazin-1-yl)quinazolin-7-yl)-3-fluorophenoxy)heptanamido)-3,3-dimethylbutanoyl)-4-hydroxy-N-(4-(4-methylthiazol-5-yl)benzyl)pyrrolidine-2-carboxamide], the “Inhibition of H358 cells, IC50 (class)” value in the experiment on H358 cells was “B′”. Also, in the experiment on H23 cells, the “Inhibition of H23 cells, IC50 (class)” value is given as “C′”. Also, in the experiment with MOLM-13 cells, the viability at 10 µM is under 10%.
